What was measured:
TOR2-mTOR L2185G mutant = assay: Yeast spotting assay for drug resistance, TOR2-mTOR L2185G; format: cell-based, S. cerevisiae; conditions: 37° C., with amphotericin B
Text: FIGS. 4A-C. […] (FIG. 4A) Scheme of a yeast-based screen for drug-resistant mutations in mTOR kinase domain. mTOR kinase domain is amplified by error-prone PCR to generate randomized mutations, which is then recombined in frame into the TOR2-mTOR plasmid by gap-repair in tort-dg cells, and is selected on SC-leucine minus plates. Replica plating is then made onto SC-leucine plates containing DMSO or mTOR kinase inhibitor for selection of drug resistant clones. (FIG. 4B) tor2-dg cells expressing WT or mutant TOR2-mTOR were serially diluted by 10-fold and assayed for sensitivity to different mTOR kinase inhibitors in the presence of amphotericin B. Vector and TOR2 were used as controls. Drug resistant assay was performed at 37° C. in the presence of amphotericin B (except OSI-027). (FIG. 4C) Systematic mutational analysis of L2185 on drug resistance. tort-dg cells expressing WT or mutant TOR2-mTOR carrying all possible mutations at L2185 were serially diluted by 10-fold and tested for sensitivity to different mTOR kinase inhibitors at 37° C.
To enhance yeast cell permeability, log phase W303 tort-dg cells were spread evenly on SD-Leu agarose plates. After drying, small sterile filter discs were placed on the surface and 5 μl of indicated mTOR inhibitors or DMSO were applied to each disc with or without adding 5 μl of amphotericin B (10 μM), miconazole (50 μM) or caspofungin (50 μM). Plates were incubated at 37° C. for 3 day. Drug resistance profiles of TOR2-mTOR mutant cells were determined by the spotting assay. For this assay, 10-fold serial dilutions of cells were spotted on SD-leu plates in the presence of indicated mTOR inhibitors with or without amphotericin B (200 nM) and incubated at 37° C. for 3 day.

[1] = test system: xenograft tumors derived from SW480 cells carrying homozygous mTOR(L2185A) alleles; assay: SW480 xenograft tumor model, mTOR(L2185A); format: in vivo, mice
Procedure: FIGS. 6A-E. L2185A mutation renders resistance of xenograft tumors to mTOR kinase inhibitors. (FIG. 6A) Mice bearing xenograft tumors derived from SW480 cells expressing WT mTOR were administered with INK128 at 1 mg/kg or 0.3 mg/kg, once daily via intraperitoneal injection. Shown are representative animals and excised tumors after drug treatment. (FIG. 6B) Same as FIG. 6A except xenograft tumors were derived from SW480 carrying homozygous mTOR(L2185A) alleles. (FIG. 6C) Tumor volume measurement for SW480 xenograft tumors expressing mTOR (WT) (expressed as means±SD; n=8, *P<0.01, vs. vehicle control). (FIG. 6D) Tumor volume measurement for SW480 xenograft tumors expressing mTOR(L2185A) mutant (expressed as means±SD; n=8). (FIG. 6E) Tissue extracts from xenograft tumors at the end of treatment with or without 1 mg/kg INK128 were analyzed for the level of P-S6K, S6K, P-S6, S6, P-4E-BP1, 4E-BP1, P-AKT and AKT was analyzed by immunoblot. Six tumor samples from each animal group were shown with each lane representing an individual tumor sample.
Female athymic NCr-nu/nu mice (4-6 weeks old) were obtained from Taconic Farms. […] Tumor volume was calculated by the following formula: tumor volume (mm^3)=(shorter diameter^2× longer diameter)/2 and are presented as means±SD (n=8) (Zhang, Y., and Zheng, X. (2012). Cell Cycle 11, 594-603). […]

[2] = test system: Flag-mTOR(L2185A) in HEK293T cells; assay: mTOR signaling immunoblot in HEK293T cells transiently expressing Flag-mTOR(L2185A); format: cell-based, human; conditions: various concentrations, 1 hr, vs WT Flag-mTOR
Procedure: (FIG. 10A) Flag-mTOR(L2185A), when transiently expressed in HEK293T cells, confers drug resistance to mTOR kinase inhibitors. HEK293T cells transiently expressing WT and L2185A mutant Flag-mTOR were treated with various concentrations of INK-128, OSI-027 for 1 hr. The effect on the level of P-S6K, S6K, P-4E-BP1, 4EB-P1, P-AKT and AKT was analyzed by immunoblot. (FIG. 10B) Sequencing verification of genome-engineered SW480 and H460 cells carrying homozygous and heterozygous L2185A mutations in mTOR locus. (FIG. 10C) Independent clones of engineered SW480 cells confer similar drug resistance. Cells were treated with various concentrations of AZD8055 and INK-128 for 2 days. Cell growth was measured by SRB assay. Clones #1, 3 carry heterozygous L2185A mutation. Clones #2, 4 carry homozygous L2185A mutation. Data represent means±SD in three independent experiments. (FIG. 10D) SW480 cells carrying heterozygous and homozygous mTOR(L2185A) mutant alleles have similar drug resistance to mTOR kinase inhibitors. SW480 cells carrying homozygous WT and L2185A mutant mTOR alleles were treated with various concentrations of AZD8055, INK-128, OSI-027, and PP242 for 2 days. Cell growth was measured by SRB assay. […] Cell growth was measured by SRB assay. […] The effect on level of P-S6K, P-4E-BP1 and P-AKT was analyzed by immunoblot. […] The growth of H460 cells was measured by SRB assay. […]

SMILES: CC(C)n1nc(-c2ccc3oc(N)nc3c2)c2c(N)ncnc21 [INK128]
- drug resistance of TOR2-mTOR L2185G mutant yeast (TOR2-mTOR L2185G mutant): moderately resistant
- growth of mTOR(L2185A) xenograft tumors ([1]; 1 mg/kg or 0.3 mg/kg once daily, intraperitoneal injection): little or no effect
- mTORC1 and mTORC2 signaling in mTOR(L2185A) xenograft tumors ([1]; 1 mg/kg, tumor extracts at end of treatment, immunoblot): drug-resistance in mTORC1 and mTORC2 signaling
- drug resistance of mTOR signaling (P-S6K, P-4E-BP1, P-AKT) with Flag-mTOR(L2185A) [2]: confers resistance

— patent US10551384B2, “MTOR kinase mutations and methods of use thereof” (RUTGERS, THE STATE UNIVERSITY OF NEW JERSEY, priority 2016, dated 2020)
